Assays:
Experiment in all cases: relative viability (nuclei count vs DMSO), 5 days (fraction); higher = more cells survive
IPA-3 + Alpelisib = compound: C1=CC=C2C(=C1)C=CC(=C2SSC3=C(C=CC4=CC=CC=C43)O)O [IPA-3] + Cc1nc(NC(=O)N2CCC[C@H]2C(N)=O)sc1-c1ccnc(C(C)(C)C(F)(F)F)c1 [Alpelisib] (partner 2 µM)
How it was run: (§1)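 Relative viability divides the nuclei count in treated wells by that in vehicle wells. Lung cancer cell lines were seeded in 1536-well plates, dosed by pin tool the next day, and fixed and stained after 5 days in one step with final 0.05% Triton X-100, 1% formaldehyde and 1 ug/ml Hoechst. Dosing was a single drug or a fixed anchor-drug dose plus five library-drug doses (not always all listed) in √10 steps, and values are medians of duplicate plates imaged at 4×.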

Doramapimod + Crizotinib = compound: Cc1ccc(-n2nc(C(C)(C)C)cc2NC(=O)Nc2ccc(OCCN3CCOCC3)c3ccccc23)cc1 [Doramapimod] + C[C@@H](Oc1cc(-c2cnn(C3CCNCC3)c2)cnc1N)c1c(Cl)ccc(F)c1Cl [Crizotinib] (partner 1 µM)
How it was run: as §1

Doramapimod + Alpelisib = compound: Cc1ccc(-n2nc(C(C)(C)C)cc2NC(=O)Nc2ccc(OCCN3CCOCC3)c3ccccc23)cc1 [Doramapimod] + Cc1nc(NC(=O)N2CCC[C@H]2C(N)=O)sc1-c1ccnc(C(C)(C)C(F)(F)F)c1 [Alpelisib] (partner 2 µM)
How it was run: as §1

RAF265 + Alpelisib = compound: Cn1c(Nc2ccc(C(F)(F)F)cc2)nc2cc(Oc3ccnc(-c4ncc(C(F)(F)F)[nH]4)c3)ccc21 [RAF265] + Cc1nc(NC(=O)N2CCC[C@H]2C(N)=O)sc1-c1ccnc(C(C)(C)C(F)(F)F)c1 [Alpelisib] (partner 2 µM)
How it was run: as §1

Cell Line	relative viability (IPA-3 + Alpelisib; first compound 0.2 µM)	relative viability (IPA-3 + Alpelisib; first compound 0.6325 µM)	relative viability (IPA-3 + Alpelisib; first compound 2 µM)	relative viability (IPA-3 + Alpelisib; first compound 6.325 µM)	relative viability (IPA-3 + Alpelisib; first compound 20 µM)	relative viability (Doramapimod + Crizotinib; first compound 0.02 µM)	relative viability (Doramapimod + Crizotinib; first compound 0.06325 µM)	relative viability (Doramapimod + Crizotinib; first compound 0.2 µM)	relative viability (Doramapimod + Crizotinib; first compound 0.6325 µM)	relative viability (Doramapimod + Crizotinib; first compound 2 µM)	relative viability (Doramapimod + Alpelisib; first compound 0.02 µM)	relative viability (Doramapimod + Alpelisib; first compound 0.06325 µM)	relative viability (Doramapimod + Alpelisib; first compound 0.2 µM)	relative viability (Doramapimod + Alpelisib; first compound 0.6325 µM)	relative viability (Doramapimod + Alpelisib; first compound 2 µM)	relative viability (RAF265 + Alpelisib; first compound 0.01 µM)	relative viability (RAF265 + Alpelisib; first compound 0.03162 µM)	relative viability (RAF265 + Alpelisib; first compound 0.1 µM)	relative viability (RAF265 + Alpelisib; first compound 0.3162 µM)	relative viability (RAF265 + Alpelisib; first compound 1 µM)
NCI-H1666	1.09	0.978	1	1.12	0.844	1.21	0.907	0.959	1.08	0.935	0.834	1.01	0.882	1.03	1.01	1.1	1.11	0.942	0.815	0.547
NCI-H1703	0.362	0.289	0.304	0.301	0.397	0.614	0.576	0.519	0.783	0.493	0.363	0.336	0.323	0.393	0.278	0.213	0.298	0.251	0.274	0.206
NCI-H1734	0.733	0.594	0.692	0.677	0.822	0.665	0.639	0.589	0.659	0.495	0.603	0.567	0.559	0.629	0.533	0.668	0.529	0.589	0.532	0.333
NCI-H1755	1.11	0.918	0.908	0.939	1.03	0.886	0.905	0.788	0.768	0.833	0.907	0.884	0.989	0.98	0.922	0.966	0.864	0.779	0.486	0.408
NCI-H1792	0.729	0.668	0.703	0.646	0.794	0.762	1.06	1.07	1.04	0.971	0.606	0.658	0.578	0.713	0.521	0.668	0.663	0.668	0.518	0.168
NCI-H1915	1.17	1.05	1.09	1.03	1.07	0.907	0.894	0.915	0.918	0.779	1.04	1.1	1.12	1.11	1.08	1.07	0.945	0.908	0.543	0.296
NCI-H1944	0.836	0.832	0.958	0.942	0.983	1.09	0.993	1.14	1.16	1.11	0.756	0.829	0.765	0.829	0.71	0.896	0.841	0.646	0.496	0.442
NCI-H1975	0.644	0.65	0.628	0.753	0.708	1.05	0.944	0.897	0.973	0.96	0.756	0.674	0.69	0.77	0.676	0.589	0.427	0.306	0.234	0.173
NCI-H1993	0.742	0.6	0.616	0.66	0.594	0.739	0.788	0.907	0.919	0.775	0.765	0.617	0.707	0.626	0.664	0.648	0.648	0.77	0.761	0.715
NCI-H2009	1.22	1.18	1.24	1.16	1.14	1.04	1.2	1.18	1.08	0.988	1.23	1.22	1.22	1.13	1.13	1.21	1.11	1.03	1.05	0.594
NCI-H2023	0.737	0.636	0.575	0.628	0.768	0.695	0.629	0.575	0.666	0.625	0.498	0.54	0.503	0.617	0.503	0.554	0.625	0.721	0.639	0.508
NCI-H2085	1.07	0.919	0.989	0.949	0.984	0.86	0.871	0.851	0.95	0.655	1.03	0.928	0.839	0.913	0.93	1	0.961	0.85	1.03	0.891
NCI-H2087	1.19	0.974	1.21	1.07	0.973	0.982	0.888	0.922	0.908	0.988	1.2	1.25	1.05	1.23	0.838	0.861	0.89	0.909	0.709	0.677
NCI-H2126	0.762	0.73	0.699	0.727	0.928	0.966	1.06	1.06	1.11	1.05	0.743	0.733	0.733	0.742	0.662	0.75	0.751	0.731	0.663	0.519
NCI-H2170	0.871	0.781	0.894	0.727	0.806	1.12	1.2	1.09	1.22	1.14	0.802	0.823	0.769	0.915	0.741	0.773	0.643	0.671	0.524	0.641
NCI-H2228	0.948	0.785	0.884	0.68	0.51	0.465	0.385	0.425	0.546	0.44	0.911	0.518	0.619	0.753	0.649	0.791	0.718	0.436	0.299	0.29

From the supplement of paper PMC10307832
